From US7880007B2, “Bicyclic substituted phenyl piperidine modulators of muscarinic receptors” (Vertex Pharmaceuticals Incorporated, priority 2004, dated 2011) come the findings set out here.

Holding throughout (format): cell-based
Assay [1] concerns the target T1, M1 muscarinic receptor (Homo sapiens, UniProt P11229).
T1 construct: expressed in transfected cells; host or cells: CHO (M1-CHO)
T1 sequence (P11229 1-460): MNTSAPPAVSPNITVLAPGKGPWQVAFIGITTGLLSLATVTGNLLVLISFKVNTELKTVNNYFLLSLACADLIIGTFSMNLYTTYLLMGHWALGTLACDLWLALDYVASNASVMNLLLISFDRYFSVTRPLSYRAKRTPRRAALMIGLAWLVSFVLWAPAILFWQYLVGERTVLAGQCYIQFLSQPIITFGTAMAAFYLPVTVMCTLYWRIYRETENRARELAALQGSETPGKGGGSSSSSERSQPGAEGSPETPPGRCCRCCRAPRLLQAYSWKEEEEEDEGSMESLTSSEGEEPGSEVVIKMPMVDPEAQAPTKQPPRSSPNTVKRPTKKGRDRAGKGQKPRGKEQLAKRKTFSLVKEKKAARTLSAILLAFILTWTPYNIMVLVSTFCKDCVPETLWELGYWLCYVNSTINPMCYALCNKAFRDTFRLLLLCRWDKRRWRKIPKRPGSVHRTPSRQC
Kind of assay: Functional mobilization of intracellular calcium (FLIPR), M1-CHO cells. The conditions noted are these: for Emax: 100% efficacy = maximum response obtained with the Carbachol control; for M1 Activity: M1-CHO cells, calcium mobilization (FLIPR). Summed up:
(§1)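 CHO cells expressing human M1–M4 receptors loaded with Fluo-3 AM or Calcium 3 dye (1 mM probenecid, pH 7.4); 0.5% DMSO final. Agonist mode: compound added directly; antagonist mode: 15 min pre-incubation or co-application, then carbachol at EC80. Fluorescence read 60 s on FLIPR; efficacy relative to carbachol maximum.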
Background: Calcium assays in cells follow changes in intracellular calcium, usually with a dye or a luminescent sensor.

Assay [2] deals with T2, M3 muscarinic receptor (Homo sapiens, UniProt P20309).
T2 construct: expressed in transfected cells; host or cells: CHO (M3-CHO)
Kind of assay: Functional mobilization of intracellular calcium (FLIPR), M3-CHO cells. The conditions noted are these: for Emax: 100% efficacy = maximum response obtained with the Carbachol control; for M3 Activity: M3-CHO cells, calcium mobilization (FLIPR). The procedure, abridged:
as §1

The target in assay [3] is T3, M2 muscarinic receptor (Homo sapiens, UniProt P08172).
T3 construct: expressed in transfected cells; host or cells: CHO (M2-CHO)
T3 sequence (P08172 1-466): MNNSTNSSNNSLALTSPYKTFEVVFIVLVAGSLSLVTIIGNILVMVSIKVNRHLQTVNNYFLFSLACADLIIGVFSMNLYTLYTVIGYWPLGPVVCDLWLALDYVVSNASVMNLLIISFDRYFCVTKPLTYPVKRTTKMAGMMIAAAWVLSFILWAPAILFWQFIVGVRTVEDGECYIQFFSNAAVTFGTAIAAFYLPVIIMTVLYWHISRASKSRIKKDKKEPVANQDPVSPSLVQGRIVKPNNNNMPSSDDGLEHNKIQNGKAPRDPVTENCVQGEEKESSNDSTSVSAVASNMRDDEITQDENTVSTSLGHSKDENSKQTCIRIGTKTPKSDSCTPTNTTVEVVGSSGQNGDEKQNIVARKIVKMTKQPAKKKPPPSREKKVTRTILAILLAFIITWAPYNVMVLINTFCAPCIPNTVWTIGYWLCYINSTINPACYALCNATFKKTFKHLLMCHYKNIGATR
Kind of assay: Functional mobilization of intracellular calcium (FLIPR), M2-CHO cells. The conditions noted are these: for Emax: 100% efficacy = maximum response obtained with the Carbachol control; for M2 Activity: M2-CHO cells, calcium mobilization (FLIPR). The procedure, abridged:
as §1

In assay [4] the target is T4, M4 muscarinic receptor (Homo sapiens, UniProt P08173).
T4 construct: expressed in transfected cells; host or cells: CHO (M4-CHO)
T4 sequence (P08173 1-479): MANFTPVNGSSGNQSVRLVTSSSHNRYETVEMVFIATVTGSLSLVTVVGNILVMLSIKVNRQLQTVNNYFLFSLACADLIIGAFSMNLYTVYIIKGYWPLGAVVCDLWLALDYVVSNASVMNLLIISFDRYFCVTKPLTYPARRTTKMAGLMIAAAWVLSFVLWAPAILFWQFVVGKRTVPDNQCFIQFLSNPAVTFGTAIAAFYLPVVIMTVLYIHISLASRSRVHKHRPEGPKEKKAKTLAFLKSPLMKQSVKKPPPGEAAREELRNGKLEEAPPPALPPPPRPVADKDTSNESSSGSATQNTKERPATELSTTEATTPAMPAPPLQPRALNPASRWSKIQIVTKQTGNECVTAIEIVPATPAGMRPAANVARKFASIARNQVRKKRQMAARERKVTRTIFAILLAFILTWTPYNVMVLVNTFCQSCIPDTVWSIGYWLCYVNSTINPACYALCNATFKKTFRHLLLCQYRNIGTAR
Kind of assay: Functional mobilization of intracellular calcium (FLIPR), M4-CHO cells. The conditions noted are these: for Emax: 100% efficacy = maximum response obtained with the Carbachol control; for M4 Activity: M4-CHO cells, calcium mobilization (FLIPR). The procedure, abridged:
as §1

As a reminder, the Emax is the greatest response seen or fitted, relative to the assay's reference.

T2 sequence (P20309 whole entry): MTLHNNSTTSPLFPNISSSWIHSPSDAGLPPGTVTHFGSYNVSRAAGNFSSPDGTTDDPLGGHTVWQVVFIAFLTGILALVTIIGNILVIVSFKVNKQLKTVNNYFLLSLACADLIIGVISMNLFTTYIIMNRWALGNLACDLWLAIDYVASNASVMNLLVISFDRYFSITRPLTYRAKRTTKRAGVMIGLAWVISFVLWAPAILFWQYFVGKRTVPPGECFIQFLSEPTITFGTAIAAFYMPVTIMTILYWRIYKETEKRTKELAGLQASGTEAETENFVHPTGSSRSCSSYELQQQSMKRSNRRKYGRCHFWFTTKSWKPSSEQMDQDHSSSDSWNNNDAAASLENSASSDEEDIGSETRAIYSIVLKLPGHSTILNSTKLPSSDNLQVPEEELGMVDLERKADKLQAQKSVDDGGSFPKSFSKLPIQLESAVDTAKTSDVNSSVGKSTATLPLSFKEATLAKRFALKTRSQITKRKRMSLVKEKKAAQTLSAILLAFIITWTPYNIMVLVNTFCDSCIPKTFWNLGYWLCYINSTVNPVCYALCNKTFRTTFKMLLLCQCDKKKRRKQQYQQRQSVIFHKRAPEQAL

For `COc1ccc(-c2ccc(C(=O)N3CCCC3)cc2)cc1C1CCN([C@H]2C[C@H]3CC[C@H]2C3)CC1` [Compound 17], in assay [1], the maximum response (Emax) was less than 25% and the “M1 Activity” value was “+ (activity was measured to be greater than 5.0 μM)”. In addition, in assay [2], the maximal effect (Emax) is less than 25% and the “M3 Activity” value is listed as “+ (activity was measured to be greater than 5.0 μM)”. In addition, in assay [3], the maximum response (Emax) is less than 25% and the “M2 Activity” value is listed as “+ (activity was measured to be greater than 5.0 μM)”. In assay [4], the maximal effect (Emax) was 25 to 100% and the “M4 Activity” value is reported as “++ (activity was measured to be from 1.0 μM to 5.0 μM)”.

As to `COc1ccc(F)cc1C1CCN(C[C@H]2C[C@H]3C=C[C@H]2C3)CC1` [Compound 18], in assay [1], the maximal effect (Emax) was in the range of 25 to 100% and the “M1 Activity” value was “+++ (activity was measured to be less than 1.0 μM)”. Further, in assay [2], the Emax is less than 25% and the “M3 Activity” value was “+ (activity was measured to be greater than 5.0 μM)”. For the same compound, in assay [3], the maximum response (Emax) was 25 to 100% and the “M2 Activity” value is reported as “+++ (activity was measured to be less than 1.0 μM)”. Besides, in assay [4], the Emax was in the range of 25 to 100% and the “M4 Activity” value is listed as “+++ (activity was measured to be less than 1.0 μM)”.

As to `CCC(=O)COc1ccccc1C1CCN([C@H]2C[C@H]3CC[C@H]2C3)CC1` [Compound 19], in assay [1], the maximal effect (Emax) lay within 25 to 100% and the “M1 Activity” value is “++ (activity was measured to be from 1.0 μM to 5.0 μM)”. For the same compound, in assay [2], the Emax is less than 25% and the “M3 Activity” value is “+ (activity was measured to be greater than 5.0 μM)”. Moreover, in assay [3], the Emax was less than 25% and the “M2 Activity” value is given as “+ (activity was measured to be greater than 5.0 μM)”. Besides, in assay [4], the maximal effect (Emax) was in the range of 25 to 100% and the “M4 Activity” value is reported as “+++ (activity was measured to be less than 1.0 μM)”.

For the compound `COc1ccc(-c2ccc([S+](C)[O-])cc2)cc1C1CCN(C2CCOCC2)CC1` (centres unmarked) [Compound 22], in assay [1], the Emax was less than 25% and the “M1 Activity” value was “+ (activity was measured to be greater than 5.0 μM)”. In assay [2], the Emax is less than 25% and the “M3 Activity” value is “+ (activity was measured to be greater than 5.0 μM)”. Besides, in assay [3], the maximum response (Emax) is less than 25% and the “M2 Activity” value is “+ (activity was measured to be greater than 5.0 μM)”. For the same compound, in assay [4], the Emax was less than 25% and the “M4 Activity” value is “+ (activity was measured to be greater than 5.0 μM)”.

Consider `Cc1ccccc1C1CCN([C@H]2C[C@H]3CC[C@H]2C3)CC1` [Compound 24], for which, in assay [1], the maximal effect (Emax) fell in the range of 25 to 100% and the “M1 Activity” value is listed as “++ (activity was measured to be from 1.0 μM to 5.0 μM)”. Further, in assay [2], the Emax is less than 25% and the “M3 Activity” value is “+ (activity was measured to be greater than 5.0 μM)”. Also, in assay [3], the Emax lay within 25 to 100% and the “M2 Activity” value is reported as “++ (activity was measured to be from 1.0 μM to 5.0 μM)”. For the same compound, in assay [4], the Emax lay in the range of 25 to 100% and the “M4 Activity” value is reported as “+++ (activity was measured to be less than 1.0 μM)”.

On to `COc1ccccc1C1(O)CCN(C2CC3CCC2C3)CC1` (centres unmarked) [Compound 25], for which, in assay [1], the Emax is less than 25% and the “M1 Activity” value is “+ (activity was measured to be greater than 5.0 μM)”. Further, in assay [2], the “M3 Activity” value is on record as “+ (activity was measured to be greater than 5.0 μM)”. Also, in assay [3], the Emax was less than 25% and the “M2 Activity” value is given as “+ (activity was measured to be greater than 5.0 μM)”. In assay [4], the Emax is less than 25% and the “M4 Activity” value is “+ (activity was measured to be greater than 5.0 μM)”.

`CC(C)Oc1ccccc1C1CCN([C@H]2C[C@H]3CC[C@H]2C3)CC1` [Compound 26]: in assay [1], the Emax lay within 25 to 100% and the “M1 Activity” value is given as “++ (activity was measured to be from 1.0 μM to 5.0 μM)”. In assay [2], the maximal response (Emax) was less than 25% and the “M3 Activity” value is “+ (activity was measured to be greater than 5.0 μM)”. Moreover, in assay [3], the maximal effect (Emax) is less than 25% and the “M2 Activity” value is listed as “+ (activity was measured to be greater than 5.0 μM)”. Besides, in assay [4], the Emax was in the range of 25 to 100% and the “M4 Activity” value was “+++ (activity was measured to be less than 1.0 μM)”.

On to `COc1ccc(Cl)cc1C1CCN(C2CC3CCC(C3)C2)CC1` (centres unmarked) [Compound 27], for which, in assay [1], the Emax was 25 to 100% and the “M1 Activity” value was “++ (activity was measured to be from 1.0 μM to 5.0 μM)”. Further, in assay [2], the maximal effect (Emax) is less than 25% and the “M3 Activity” value was “+ (activity was measured to be greater than 5.0 μM)”. In assay [3], the Emax is 25 to 100% and the “M2 Activity” value is “++ (activity was measured to be from 1.0 μM to 5.0 μM)”. Also, in assay [4], the Emax was 25 to 100% and the “M4 Activity” value is on record as “+++ (activity was measured to be less than 1.0 μM)”.

Consider `COc1ccccc1C1(O)CCN(CC2CC3C=CC2C3)CC1` (centres unmarked) [Compound 29], for which, in assay [1], the Emax lay within 25 to 100% and the “M1 Activity” value is on record as “+ (activity was measured to be greater than 5.0 μM)”. Also, the “M3 Activity” value in assay [2] is reported as “+ (activity was measured to be greater than 5.0 μM)”. Also, in assay [3], the maximal effect (Emax) was less than 25% and the “M2 Activity” value is recorded as “+ (activity was measured to be greater than 5.0 μM)”. Besides, in assay [4], the maximum response (Emax) is 25 to 100% and the “M4 Activity” value is reported as “++ (activity was measured to be from 1.0 μM to 5.0 μM)”.

`CCOC(=O)N1CCC(N2CCC(O)(c3cc(Cl)ccc3OC)CC2)CC1` [Compound 31]: in assay [1], the maximum response (Emax) was 25 to 100% and the “M1 Activity” value is on record as “++ (activity was measured to be from 1.0 μM to 5.0 μM)”. In addition, in assay [2], the Emax was less than 25% and the “M3 Activity” value is “+ (activity was measured to be greater than 5.0 μM)”. Also, in assay [3], the Emax was less than 25% and the “M2 Activity” value is “+ (activity was measured to be greater than 5.0 μM)”. In assay [4], the Emax fell in the range of 25 to 100% and the “M4 Activity” value was “+++ (activity was measured to be less than 1.0 μM)”.

Turning to `FC(F)(F)c1ccccc1C1CCN(C2C[C@H]3CC[C@H]2C3)CC1` (some centres unmarked) [Compound 32], the Emax in assay [1] is 25 to 100%; in assay [2], less than 25%; in assay [3], less than 25%; in assay [4] it was 25 to 100%.

For the compound `CCOC(=O)N1C2CCC1CC(N1CCC(c3cc(-c4ccc(C(C)(C)C#N)cc4)ccc3OC)CC1)C2` (centres unmarked) [Compound 33], in assay [1], the Emax fell in the range of 25 to 100% and the “M1 Activity” value is given as “++ (activity was measured to be from 1.0 μM to 5.0 μM)”. In addition, in assay [2], the Emax was less than 25% and the “M3 Activity” value is “+ (activity was measured to be greater than 5.0 μM)”. Besides, in assay [3], the Emax was less than 25% and the “M2 Activity” value is reported as “+ (activity was measured to be greater than 5.0 μM)”. For the same compound, in assay [4], the Emax fell in the range of 25 to 100% and the “M4 Activity” value was “++ (activity was measured to be from 1.0 μM to 5.0 μM)”.

Take `COc1ccccc1C1CCN(C2CC(C)CC(C)C2)CC1` (centres unmarked) [Compound 34]: in assay [1], the Emax was less than 25% and the “M1 Activity” value is on record as “+ (activity was measured to be greater than 5.0 μM)”. Moreover, in assay [2], the Emax is less than 25% and the “M3 Activity” value is reported as “+ (activity was measured to be greater than 5.0 μM)”. Further, in assay [3], the Emax was less than 25% and the “M2 Activity” value is recorded as “+ (activity was measured to be greater than 5.0 μM)”. In addition, in assay [4], the maximal response (Emax) is less than 25% and the “M4 Activity” value is on record as “+ (activity was measured to be greater than 5.0 μM)”.
